Where two headings read alike, the source gives them in different places.
Experiments:
[1] = test system: breast cancer cell lines (e.g. MDA-MB-231, SK-BR-3, MDA-MB-468, HCC1954); test: Cell based assay, cell viability (CellTiter-Glo), breast cancer cell lines
In short: (§1)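 Cells were trypsinized, seeded, and left 24 h before compound was added at 0 to 2 μM final. After a further 72 h of culture, viability was read by ATP-based luminescence.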

[2] = test system: melanoma cell lines; test: Cell based assay, cell viability (CellTiter-Glo), melanoma cell lines; details: Homo sapiens; LOX-IMVI cell line
In short: as §1

[3] = test system: renal cancer cell lines; test: Cell based assay, cell viability (CellTiter-Glo), renal cancer cell lines; details: Homo sapiens; ACHN cells
In short: as §1

[4] = Breast cancer cell line MDA-MB-231-L/DOX, 72 hours, CellTiter-Glo, read-out: IC50, MDA-MB-231-L/DOX
[5] = Homo sapiens, Breast cancer cell line BT-20, 72 hours, CellTiter-Glo, read-out: IC50, BT-20
[6] = Homo sapiens, Breast cancer cell line HCC1395, 72 hours, CellTiter-Glo, read-out: IC50, HCC1395
[7] = Homo sapiens, Breast cancer cell line HCC1954, 72 hours, CellTiter-Glo, read-out: IC50, HCC1954
[8] = Homo sapiens, Breast cancer cell line JIMT-1, 72 hours, CellTiter-Glo, read-out: IC50, JIMT-1
[9] = Homo sapiens, Breast cancer cell line MCF7, 72 hours, CellTiter-Glo, read-out: IC50, MCF7
[10] = Homo sapiens, Breast cancer cell line MDA-MB-231, 72 hours, CellTiter-Glo, read-out: IC50, MDA-MB-231
[11] = Homo sapiens, Breast cancer cell line MDA-MB-468, 72 hours, CellTiter-Glo, read-out: IC50, MDA-MB-468
[12] = Homo sapiens, Breast cancer cell line SK-BR-3, 72 hours, CellTiter-Glo, read-out: IC50, SK-BR-3
[13] = Homo sapiens, BT-20 cells, 72 hours treatment, CellTiter-Glo cell viability, read-out: IC50, Breast cancer cell line BT-20
[14] = Homo sapiens, HCC1395 cells, 72 hours treatment, CellTiter-Glo cell viability, read-out: IC50, Breast cancer cell line HCC1395
[15] = Homo sapiens, HCC1954 cells, 72 hours treatment, CellTiter-Glo cell viability, read-out: IC50, Breast cancer cell line HCC1954
[16] = Homo sapiens, JIMT-1 cells, 72 hours treatment, CellTiter-Glo cell viability, read-out: IC50, Breast cancer cell line JIMT-1
[17] = Homo sapiens, MCF7 cells, 72 hours treatment, CellTiter-Glo cell viability, read-out: IC50, Breast cancer cell line MCF7
[18] = Homo sapiens, MDA-MB-231 cells, 72 hours treatment, CellTiter-Glo cell viability, read-out: IC50, Breast cancer cell line MDA-MB-231
[19] = Homo sapiens, MDA-MB-468 cells, 72 hours treatment, CellTiter-Glo cell viability, read-out: IC50, Breast cancer cell line MDA-MB-468
[20] = Homo sapiens, SK-BR-3 cells, 72 hours treatment, CellTiter-Glo cell viability, read-out: IC50, Breast cancer cell line SK-BR-3
[21] = MDA-MB-231-L/DOX cells, 72 hours treatment, CellTiter-Glo cell viability, read-out: IC50, Breast cancer cell line MDA-MB-231-L/DOX

SMILES	IC50 [1, 4] [µM]	IC50 [1, 5] [µM]	IC50 [1, 6] [µM]	IC50 [1, 7] [µM]	IC50 [1, 8] [µM]	IC50 [1, 9] [µM]	IC50 [1, 10] [µM]	IC50 [1, 11] [µM]	IC50 [1, 12] [µM]	IC50 [2] [µM]	IC50 [3] [µM]	IC50 [1, 13] [µM]	IC50 [1, 14] [µM]	IC50 [1, 15] [µM]	IC50 [1, 16] [µM]	IC50 [1, 17] [µM]	IC50 [1, 18] [µM]	IC50 [1, 19] [µM]	IC50 [1, 20] [µM]	IC50 [1, 21] [µM]
CC(=O)c1c([S+]([O-])Cc2cc(C)on2)[nH]c2c(F)ccc(F)c2c1=O (stereo not shown) [Compound 82, 3-acetyl-5,8-difluoro-2-(((5-methylisoxazol-3-yl)methyl)sulfinyl)quinolin-4(1H)-one]	–	–	–	–	–	–	–	–	–	> 2	> 2	> 2	> 10	> 2	> 10	> 2	> 2	> 2	1.77	> 2
CC(C)C(=O)c1c([S+]([O-])Cc2ccc(SC(F)(F)F)cc2)[nH]c2c(F)ccc(F)c2c1=O (stereo not shown) [Compound 85, 5,8-difluoro-3-isobutyryl-2-((4-((trifluoromethyl)thio)benzyl)sulfinyl)quinolin-4(1H)-one]	–	–	–	–	–	–	–	–	–	> 2	> 2	> 2	> 10	> 2	> 10	> 2	> 2	> 2	> 2	> 2
O=C(c1ccccc1)c1c([S+]([O-])Cc2ccc(S(F)(F)(F)(F)F)cc2)[nH]c2c(F)ccc(F)c2c1=O (stereo not shown) [Compound 87, 3-benzoyl-5,8-difluoro-2-((4-(pentafluoro--sulfanyl)benzyl)sulfinyl)quinolin-4(1H)-one]	–	–	–	–	–	–	–	–	–	> 2	> 2	> 2	> 10	> 2	> 10	> 2	> 2	> 2	> 2	> 2
Cc1cc(C[S+]([O-])c2[nH]c3c(Cl)ccc(Cl)c3c(=O)c2C(=O)c2ccccc2)no1 (stereo not shown) [Compound 88, 3-benzoyl-5,8-dichloro-2-(((5-methylisoxazol-3-yl)methyl)sulfinyl)quinolin-4(1H)-one]	–	–	–	–	–	–	–	–	–	> 2	> 2	> 2	> 10	> 2	> 10	> 2	> 2	> 2	> 2	> 2
CC(=O)c1c([S+]([O-])CN2C(=O)c3ccccc3C2=O)[nH]c2c(Cl)ccc(Cl)c2c1=O (stereo not shown) [Compound 90, 2-(((3-acetyl-5,8-dichloro-4-oxo-1,4-dihydroquinolin-2-yl)sulfinyl)methyl)isoindoline-1,3-dione]	–	–	–	–	–	–	–	–	–	> 2	> 2	> 2	> 10	> 2	> 10	> 2	> 2	> 2	> 2	> 2
COC(=O)c1ccc(C[S+]([O-])c2[nH]c3c(Cl)ccc(Cl)c3c(=O)c2C(C)=O)cc1 (stereo not shown) [Compound 91, methyl 4-(((3-acetyl-5,8-dichloro-4-oxo-1,4-dihydroquinolin-2-yl)sulfinyl)methyl)benzoate]	–	–	–	–	–	–	–	–	–	> 2	> 2	> 2	> 10	1.82	> 10	> 2	> 2	1.32	1.32	> 2
COc1cccc2[nH]c(SCc3ccc(S(F)(F)(F)(F)F)cc3)c(C(C)=O)c(=O)c12 [Compound 92, 3-acetyl-5-methoxy-2-((4-(pentafluoro--sulfanyl)benzyl)thio)quinolin-4(1H)-one]	–	–	–	–	–	–	–	–	–	> 2	> 2	> 2	> 10	> 2	> 10	> 2	> 2	> 2	> 2	> 2
COc1cccc2[nH]c([S+]([O-])Cc3ccc(S(F)(F)(F)(F)F)cc3)c(C(C)=O)c(=O)c12 (stereo not shown) [Compound 93, 3-acetyl-5-methoxy-2-((4-(pentafluoro--sulfanyl)benzyl)sulfinyl)quinolin-4(1H)-one]	–	–	–	–	–	–	–	–	–	> 2	> 2	> 2	> 10	> 2	> 10	> 2	> 2	> 2	> 2	> 2
COc1cccc2[nH]c([S+]([O-])Cc3cc(C)on3)c(C(C)=O)c(=O)c12 (stereo not shown) [Compound 94, 3-acetyl-5-methoxy-2-(((5-methylisoxazol-3-yl)methyl)sulfinyl)quinolin-4(1H)-one]	–	–	–	–	–	–	–	–	–	> 2	> 2	> 2	> 10	> 2	> 10	> 2	> 2	1.85	1.85	> 2
Cc1cc(C[S+]([O-])c2[nH]c3c(Br)ccc(Cl)c3c(=O)c2C(=O)C2CC2)no1 (stereo not shown) [Compound 96, 8-bromo-5-chloro-3-(cyclopropanecarbonyl)-2-(((5-methylisoxazol-3-yl)methyl)sulfinyl)quinolin-4(1H)-one]	–	–	–	–	–	–	–	–	–	> 2	1.67	> 2	> 10	1.04	> 10	> 2	> 2	0.98	0.98	> 2

Now from value to compound:

IC50 [1, 4] [µM]	IC50 [1, 5] [µM]	IC50 [1, 6] [µM]	IC50 [1, 7] [µM]	IC50 [1, 8] [µM]	IC50 [1, 9] [µM]	IC50 [1, 10] [µM]	IC50 [1, 11] [µM]	IC50 [1, 12] [µM]	IC50 [2] [µM]	IC50 [3] [µM]	IC50 [1, 13] [µM]	IC50 [1, 14] [µM]	IC50 [1, 15] [µM]	IC50 [1, 16] [µM]	IC50 [1, 17] [µM]	IC50 [1, 18] [µM]	IC50 [1, 19] [µM]	IC50 [1, 20] [µM]	IC50 [1, 21] [µM]	SMILES
> 2	> 2	> 10	> 2	> 10	> 2	1.37	> 2	1.45	1.12	> 2	–	–	–	–	–	–	–	–	–	CC(=O)c1c([S+]([O-])Cc2ccc(S(F)(F)(F)(F)F)cc2F)[nH]c2c(Br)ccc(Cl)c2c1=O (stereo not shown) [Compound 69, 3-acetyl-8-bromo-5-chloro-2-((2-fluoro-4-(pentafluoro-16-sulfanyl)benzyl)sulfinyl)quinolin-4(1H)-one]
> 2	> 2	> 10	> 2	> 10	> 2	> 2	> 2	1.44	1.16	> 2	–	–	–	–	–	–	–	–	–	CC(=O)c1c([S+]([O-])Cc2cccc(S(F)(F)(F)(F)F)c2)[nH]c2c(Br)ccc(Cl)c2c1=O (stereo not shown) [Compound 77, 3-acetyl-8-bromo-5-chloro-2-((3-(pentafluoro--sulfanyl)benzyl)sulfinyl)quinolin-4(1H)-one]
> 2	> 2	> 10	> 2	> 10	> 2	> 2	> 2	> 2	> 2	> 2	–	–	–	–	–	–	–	–	–	CC(=O)c1c([S+]([O-])Cc2ccc(SC(F)(F)F)cc2)[nH]c2c(Cl)ccc(Cl)c2c1=O (stereo not shown) [Compound 79, 3-acetyl-5,8-dichloro-2-((4-((trifluoromethyl)thio)benzyl)sulfinyl)quinolin-4(1H)-one]
> 2	> 2	> 10	> 2	> 10	> 2	> 2	> 2	> 2	> 2	> 2	–	–	–	–	–	–	–	–	–	CC(=O)c1c([S+]([O-])Cc2ccc(S(F)(F)(F)(F)F)cc2)[nH]c2c(F)ccc(F)c2c1=O (stereo not shown) [Compound 80, 3-acetyl-5,8-difluoro-2-((4-(pentafluoro--sulfanyl)benzyl)sulfinyl)quinolin-4(1H)-one]
> 2	> 2	> 10	> 2	> 10	> 2	> 2	> 2	> 2	> 2	> 2	–	–	–	–	–	–	–	–	–	CC(=O)c1c([S+]([O-])Cc2ccc(C(F)(F)F)o2)[nH]c2c(F)ccc(F)c2c1=O (stereo not shown) [Compound 81, 3-acetyl-5,8-difluoro-2-(((5-(trifluoromethyl)furan-2-yl)methyl)sulfinyl)quinolin-4(1H)-one]
–	–	–	–	–	–	–	–	–	1.03	1.33	> 2	> 10	0.78	> 10	> 2	1.78	0.76	0.76	1.13	Cc1cc(C[S+]([O-])c2[nH]c3c(Cl)ccc(Cl)c3c(=O)c2C(=O)C2CC2)no1 (stereo not shown) [Compound 97, 5,8-dichloro-3-(cyclopropanecarbonyl)-2-(((5-methylisoxazol-3-yl)methyl)sulfinyl)quinolin-4(1H)-one]
–	–	–	–	–	–	–	–	–	1.34	1.81	> 2	> 10	1.31	> 10	> 2	1.86	1	1	> 2	CC(=O)c1c([S+]([O-])Cc2ccc(C#N)s2)[nH]c2c(Br)ccc(Cl)c2c1=O (stereo not shown) [Compound 98, 5-(((3-acetyl-8-bromo-5-chloro-4-oxo-1,4-dihydroquinolin-2-yl)sulfinyl)methyl)thiophene-2-carbonitrile]

— patent publication US11464770B2, “Anticancer pharmaceutical composition” (NATIONAL CANCER CENTER, priority 2016, dated 2022)
